Experimental data reported in patent US10544120B2, “Biaryl kinase inhibitors” (BRISTOL-MYERS SQUIBB COMPANY, priority 2015, dated 2020).
pIC50: −log10 of the molar value.

These compounds were tested against GST-Xa-hAAK1 (Homo sapiens (Human), UniProt Q2M2I8) (assay: AAK1 Kinase Assay). Conditions: bacterially expressed GST-Xa-hAAK1 3.5 nM; ATP 22 μM; fluoresceinated peptide 1.5 μM; 3 hours at room temperature; Caliper LabChip 3000.
Type: biochemical
Method: The assays were performed in U-bottom 384-well plates. […] The reactions were initiated by the combination of bacterially expressed, GST-Xa-hAAK1 with substrates and test compounds. The reactions were incubated at room temperature for 3 hours and terminated by adding 60 μl of 35 mM EDTA buffer to each sample. The reactions were analyzed on the Caliper LabChip 3000 (Caliper, Hopkinton, Mass.) by electrophoretic separation of the fluorescent substrate and phosphorylated product. […] Compounds were dissolved at 10 mM in dimethylsulfoxide (DMSO) and evaluated at eleven concentrations. IC50 values were derived by non-linear regression analysis.

Sequence of GST-Xa-hAAK1 (Q2M2I8 whole entry): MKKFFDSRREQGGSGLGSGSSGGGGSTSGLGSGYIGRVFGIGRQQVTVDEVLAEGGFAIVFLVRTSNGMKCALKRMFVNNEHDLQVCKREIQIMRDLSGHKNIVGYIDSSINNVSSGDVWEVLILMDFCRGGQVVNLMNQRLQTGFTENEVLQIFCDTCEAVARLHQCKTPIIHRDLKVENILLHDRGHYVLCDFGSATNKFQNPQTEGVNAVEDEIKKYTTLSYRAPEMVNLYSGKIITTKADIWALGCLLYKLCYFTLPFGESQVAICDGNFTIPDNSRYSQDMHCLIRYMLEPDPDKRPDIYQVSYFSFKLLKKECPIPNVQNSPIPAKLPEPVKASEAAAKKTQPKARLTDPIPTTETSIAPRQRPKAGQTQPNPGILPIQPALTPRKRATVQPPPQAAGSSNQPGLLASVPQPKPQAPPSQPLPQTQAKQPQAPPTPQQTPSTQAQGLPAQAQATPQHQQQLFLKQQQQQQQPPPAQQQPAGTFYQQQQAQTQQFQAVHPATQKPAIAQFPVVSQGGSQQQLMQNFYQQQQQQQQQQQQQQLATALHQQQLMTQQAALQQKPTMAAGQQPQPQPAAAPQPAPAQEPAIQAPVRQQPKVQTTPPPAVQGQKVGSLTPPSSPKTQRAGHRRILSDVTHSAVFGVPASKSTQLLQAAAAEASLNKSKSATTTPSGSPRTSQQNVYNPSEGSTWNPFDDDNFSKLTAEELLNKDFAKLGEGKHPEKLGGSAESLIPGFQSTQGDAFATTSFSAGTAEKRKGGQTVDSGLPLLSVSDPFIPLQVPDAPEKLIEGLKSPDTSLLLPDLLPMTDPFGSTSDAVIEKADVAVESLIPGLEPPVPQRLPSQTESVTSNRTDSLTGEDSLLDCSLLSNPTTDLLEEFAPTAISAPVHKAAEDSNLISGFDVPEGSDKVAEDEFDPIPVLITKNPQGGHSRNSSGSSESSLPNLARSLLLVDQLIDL

| pIC50 | Structure (SMILES) |
| --- | --- |
| 6.53 | COC(=O)Nc1nccc(-c2cnc(OC[C@](C)(N)CC(C)C)c(Cl)c2)n1 [Example 304, (R)-methyl(4-(6-((2-amino-2,4-dimethylpentyl)oxy)-5-chloropyridin-3-yl)pyrimidin-2-yl)carbamate] |
| 9.00 | COC(=O)Nc1nccc(-c2ccc(OC[C@@](C)(N)CC(C)C)c(C#N)c2)n1 [Example 305, (S)-methyl (4-(4-((2-amino-2,4-dimethylpentyl)oxy)-3-cyanophenyl)pyrimidin-2-yl)carbamate] |
| 9.22 | COC(=O)Nc1nccc(-c2ccc(OC[C@@](C)(N)CC(C)C)c(C(F)(F)F)c2)n1 [Example 306, (S)-methyl(4-(4-((2-amino-2,4-dimethylpentyl)oxy)-3-(trifluoromethyl)phenyl)pyrimidin-2-yl)carbamate] |
| 9.05 | COC(=O)Nc1nccc(-c2ccc(OC[C@@](C)(N)CC(C)C)c(Cl)c2)n1 [Example 307, (S)-methyl (4-(4-((2-amino-2,4-dimethylpentyl)oxy)-3-chlorophenyl)pyrimidin-2-yl)carbamate] |
| 7.92 | Cc1cc(-c2ccc(OC[C@@](C)(N)CC(C)C)c(Cl)c2)ncn1 [Example 308, (S)-1-(2-chloro-4-(6-methylpyrimidin-4-yl)phenoxy)-2,4-dimethylpentan-2-amine] |
| 8.07 | Cc1cc(-c2ccc(OC[C@@](C)(N)CC(C)C)c(C(F)(F)F)c2)ncn1 [Example 309, (S)-2,4-dimethyl-1-(4-(6-methylpyrimidin-4-yl)-2-(trifluoromethyl)phenoxy)pentan-2-amine] |
| 8.04 | COC(=O)Nc1nccc(-c2ccc(OC[C@@](C)(N)CC(C)C)c(F)c2)n1 [Example 310, (S)-methyl (4-(4-((2-amino-2,4-dimethylpentyl)oxy)-3-fluorophenyl)pyrimidin-2-yl)carbamate] |
| 8.41 | CC(C)C[C@](C)(N)COc1ccc(-c2ccnc(NC(=O)OC(C)C)n2)cc1C(F)(F)F [Example 311, (S)-isopropyl (4-(4-((2-amino-2,4-dimethylpentyl)oxy)-3-(trifluoromethyl)phenyl)pyrimidin-2-yl)carbamate] |
| 8.31 | COC(=O)Nc1nccc(-c2ccc(OC[C@@](C)(N)CC(C)C)c(C)n2)n1 [Example 312, (S)-methyl (4-(5-((2-amino-2,4 dimethylpentyl)oxy)-6-methylpyridin-2-yl)pyrimidin-2-yl)carbamate] |
| 8.62 | Cc1nc(-c2ccnc(N)n2)ccc1OC[C@@](C)(N)CC(C)C [Example 313, (S)-4-(5-((2-amino-2,4-dimethylpentyl)oxy)-6-methylpyridin-2-yl)pyrimidin-2-amine] |
| 8.92 | CCOC(=O)Nc1nccc(-c2ccc(OC[C@@](C)(N)CC(C)C)c(C(F)(F)F)c2)n1 [Example 314, (S)-ethyl (4-(4-((2-amino-2,4-dimethylpentyl)oxy)-3-(trifluoromethyl)phenyl)pyrimidin-2-yl)carbamate] |
| 8.82 | CC(C)C[C@](C)(N)COc1ccc(-c2ccnc(C(F)F)n2)cc1C#N [Example 315, (S)-2-((2-amino-2,4-dimethylpentyl)oxy)-5-(2-(difluoromethyl)pyrimidin-4-yl)benzonitrile] |
| 8.09 | COc1nccc(-c2ccc(OC[C@@](C)(N)CC(C)C)c(C(F)(F)F)c2)n1 [Example 316, (S)-1-(4-(2-methoxypyrimidin-4-yl)-2-(trifluoromethyl)phenoxy)-2,4-dimethylpentan-2-amine] |
| 6.99 | CC(C)C[C@](C)(N)COc1ccc(-c2ccnc(O)n2)cc1C(F)(F)F [Example 317, (S)-4-(4-((2-amino-2,4-dimethylpentyl)oxy)-3 (trifluoromethyl)phenyl)pyrimidin-2-ol] |
| 8.01 | Cc1cc(-c2cc(C(F)F)c(OC[C@@](C)(N)CC(C)C)cn2)ncn1 [Example 318, (S)-1-((4-(difluoromethyl)-6-(6-methylpyrimidin-4-yl)pyridin-3-yl)oxy)-2,4-dimethylpentan-2-amine] |
| 9.30 | CC(C)C[C@](C)(N)COc1ccc(-c2ccnc(C(F)F)n2)nc1C(F)F [Example 319, (S)-1-((2-(difluoromethyl)-6-(2-(difluoromethyl)pyrimidin-4-yl)pyridin-3-yl)oxy)-2,4-dimethylpentan-2-amine] |
| 7.68 | Cc1cc(-c2ccc(OC[C@@](C)(N)CC(C)C)c(CF)n2)ccn1 [Example 320, (S)-1-((6-(fluoromethyl)-2′-methyl-[2,4′-bipyridin]-5-yl)oxy)-2,4-dimethylpentan-2-amine] |
| 9.10 | COC(=O)Nc1nccc(-c2ccc(OC[C@@](C)(N)CC(C)C)c(C(F)F)n2)n1 [Example 323, (S)-methyl (4-(5-((2-amino-2,4-dimethylpentyl)oxy)-6-(difluoromethyl)pyridin-2-yl)pyrimidin-2-yl)carbamate] |
| 8.32 | CC(C)C[C@](C)(N)COc1ccc(-c2ccnc(CF)c2)nc1CF [Example 324, (S)-1-((2′,6-bis(fluoromethyl)-[2,4′-bipyridin]-5-yl)oxy)-2,4-dimethylpentan-2-amine] |

| pIC50 | Structure (SMILES) |
| --- | --- |
| 8.74 | CC(C)C[C@](C)(N)COc1ccc(-c2ccnc(C(F)F)c2)nc1CF [Example 325, (S)-1-((2′-(difluoromethyl)-6-(fluoromethyl)-[2,4′-bipyridin]-5-yl)oxy)-2,4-dimethylpentan-2-amine] |
| 7.38 | CC(C)CC1(COc2ccc(-c3ccnc(C(F)F)c3)nc2C(F)F)CCN1 (stereo not shown) [Example 326, 2′,6-bis(difluoromethyl)-5-((2-isobutylazetidin-2-yl)methoxy)-2,4′-bipyridine] |
| 9.10 | Cc1cc2c(-c3ccc(OC[C@@](C)(N)CC(C)C)c(C(F)(F)F)c3)ccnc2[nH]1 [Example 327, (S)-2,4-dimethyl-1-(4-(2-methyl-1H-pyrrolo[2,3-b]pyridin-4-yl)-2-(trifluoromethyl)phenoxy)pentan-2-amine] |
| 9.40 | Cc1cc2c(-c3ccc(OC[C@@](C)(N)CC(C)C)c(C#N)c3)ccnc2[nH]1 [Example 328, (S)-2-((2-amino-2,4-dimethylpentyl)oxy)-5-(2-methyl-1H-pyrrolo[2,3-b]pyridin-4-yl)benzonitrile] |
| 8.62 | Cc1nccc(-c2ccc(OC[C@@](C)(N)CC(C)C)c(C)c2)n1 [Example 329, (S)-2,4-dimethyl-1-(2-methyl-4-(2-methylpyrimidin-4-yl)phenoxy)pentan-2-amine] |
| 8.14 | Cc1cc(-c2ccnc(C(F)(F)F)n2)ccc1OC[C@@](C)(N)CC(C)C [Example 330, (S)-2,4-dimethyl-1-(2-methyl-4-(2-(trifluoromethyl)pyrimidin-4-yl)phenoxy)pentan-2-amine] |
| 7.35 | CC(C)C[C@](C)(N)COc1ccc(-c2ccnc(C(F)(F)F)n2)cc1F [Example 331, (S)-1-(2-fluoro-4-(2-(trifluoromethyl)pyrimidin-4-yl)phenoxy)-2,4-dimethylpentan-2-amine] |
| 6.05 | CC(C)C[C@](C)(N)COc1ccc(-c2ccnc(C(C)C)n2)cc1F [Example 337, (S)-1-(2-fluoro-4-(2-isopropylpyrimidin-4-yl)phenoxy)-2,4-dimethylpentan-2-amine] |
| 7.72 | Cc1nc(-c2cc(N)ncn2)ccc1OC[C@@](C)(N)CC(C)C [Example 343, (S)-6-(5-((2-amino-2,4-dimethylpentyl)oxy)-6-methylpyridin-2-yl)pyrimidin-4-amine] |
| 7.59 | Cc1cc(-c2ccnc(F)c2)ncc1OC[C@@](C)(N)CC(C)C [Example 344, (S)-1-((2′-fluoro-4-methyl-[2,4′-bipyridin]-5-yl)oxy)-2,4-dimethylpentan-2-amine] |
| 6.29 | Cc1nc(-c2ccnc(C(F)(F)F)c2)ccc1OC[C@@](C)(N)CC(C)C [Example 348, (S)-2,4-dimethyl-1-((6-methyl-2′-(trifluoromethyl)-[2,4′-bipyridin]-5-yl)oxy)pentan-2-amine] |
| 7.15 | Cc1cc(-c2ccnc(C(F)(F)F)c2)ncc1OC[C@@](C)(N)CC(C)C [Example 349, (S)-2,4-dimethyl-1-((4-methyl-2′-(trifluoromethyl)-[2,4′-bipyridin]-5-yl)oxy)pentan-2-amine] |
| 7.41 | Cc1cc(-c2ccc(OC[C@@](C)(N)CC(C)C)c(C(F)F)c2)ncn1 [Example 350, (S)-1-(2-(difluoromethyl)-4-(6-methylpyrimidin-4-yl)phenoxy)-2,4-dimethylpentan-2-amine] |
| 8.85 | Cc1nccc(-c2ccc(OC[C@@](C)(N)CC(C)C)c(CF)c2)n1 [Example 352, (S)-1-(2-(fluoromethyl)-4-(2-methylpyrimidin-4-yl)phenoxy)-2,4-dimethylpentan-2-amine] |
| 6.49 | Cc1nccc(-c2ccc(OC[C@](C)(N)CC(C)C)c(C)n2)n1 [Example 354, (R)-2,4-dimethyl-1-((2-methyl-6-(2-methylpyrimidin-4-yl)pyridin-3-yl)oxy)pentan-2-amine] |
| 8.96 | CC(C)C[C@](C)(N)COc1ccc(-c2ccnc(CF)c2)nc1C(F)F [Example 355, (S)-1-((6-(difluoromethyl)-2′-(fluoromethyl)-[2,4′-bipyridin]-5-yl)oxy)-2,4-dimethylpentan-2-amine] |
| 7.09 | CC(C)C[C@](C)(N)COc1ccc(-c2ccnc(C(F)(F)F)c2)nc1C(F)F [Example 356, (S)-1-((6-(difluoromethyl)-2′-(trifluoromethyl)-[2,4′-bipyridin]-5-yl)oxy)-2,4-dimethylpentan-2-amine] |
| 8.35 | Cc1cc(-c2ccnc(Cl)n2)ccc1OC[C@@](C)(N)CC(C)C [Example 367, (S)-1-(4-(2-chloropyrimidin-4-yl)-2-methylphenoxy)-2,4-dimethylpentan-2-amine] |
